These results are taken from patent US20040024024A1, “Aromatic sulfone hydroxamates and their use as protease inhibitors” (priority 2001, published 2004).

In one assay the target is T1, Human recombinant MMP-2 (Homo sapiens, UniProt P08253).
T1 construct: made in house; host or cells: MMP-2-transfected p2AHT2 cells
T1 sequence (P08253 110-660): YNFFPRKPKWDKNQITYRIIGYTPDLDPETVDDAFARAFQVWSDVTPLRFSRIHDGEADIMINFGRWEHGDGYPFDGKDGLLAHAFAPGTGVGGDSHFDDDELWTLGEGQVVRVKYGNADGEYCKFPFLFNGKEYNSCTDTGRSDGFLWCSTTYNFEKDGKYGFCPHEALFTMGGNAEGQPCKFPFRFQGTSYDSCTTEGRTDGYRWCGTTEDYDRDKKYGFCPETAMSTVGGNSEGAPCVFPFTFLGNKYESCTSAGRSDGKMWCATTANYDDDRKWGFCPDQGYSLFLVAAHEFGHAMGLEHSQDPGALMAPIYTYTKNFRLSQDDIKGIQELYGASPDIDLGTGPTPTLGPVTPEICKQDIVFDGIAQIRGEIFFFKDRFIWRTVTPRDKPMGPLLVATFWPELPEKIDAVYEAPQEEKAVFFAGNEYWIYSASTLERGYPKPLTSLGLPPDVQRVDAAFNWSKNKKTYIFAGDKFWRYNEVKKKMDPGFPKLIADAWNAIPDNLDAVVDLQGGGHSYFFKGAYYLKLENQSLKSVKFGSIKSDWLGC
Nature of the assay: In vitro MMP inhibition, IC50 determination (fluorogenic substrate I). In kind it is biochemical. The following applies: value outside parenthesis. In short, it runs like this:
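APMA- or trypsin-activated recombinant MMP-2 was incubated at room temperature with serial inhibitor dilutions in Tris buffer pH 7.5 (100 mM NaCl, 10 mM CaCl2, 0.05% Brij), with DMSO from 1% stocks, and 4 μM substrate I. Cleavage was read by fluorescence at 328/415 nm; IC50 was taken from the loss of fluorescence versus inhibitor concentration.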

A further assay has as its target T2, Human recombinant MMP-13 (Homo sapiens, UniProt P45452).
T2 construct: made in house; host or cells: baculovirus / insect cells
The description is as above. In kind it is biochemical. The following applies: value outside parenthesis. In short, it runs like this:
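Fluorescence at 415 nm (excitation 328 nm) reports Gly-Leu cleavage of 4 μM quenched methoxycoumarin peptide substrate I. Human recombinant MMP-13, activated by trypsin or APMA, was incubated at room temperature with varied inhibitor concentrations in pH 7.5 Tris/NaCl/CaCl2 buffer; IC50 derived from reduced fluorescence.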

As a reminder, the IC50 is the concentration at which inhibition is half-maximal. For the compound `O=C(NO)C1(S(=O)(=O)c2ccc(OCCCc3nc(-c4ccc(OC(F)(F)F)cc4)no3)cc2)CCN(Cc2ccccc2)CC1` [Example 93], the IC50 is 747 nM on Human recombinant MMP-2 and 15.5 nM at Human recombinant MMP-13.
Turning to `COCCN1CCC(C(=O)NO)(S(=O)(=O)c2ccc(OCCCc3nc(-c4ccc(Br)cc4C)no3)cc2)CC1` [Example 135], the IC50 at Human recombinant MMP-2 came out at 24.3 nM; at Human recombinant MMP-13, 2.9 nM.
Turning to `COCCN1CCC(C(=O)NO)(S(=O)(=O)c2ccc(OCCCc3nc(-c4ccc(C5(c6ccccc6)CC5)cc4)no3)cc2)CC1` [Example 185], the IC50 at Human recombinant MMP-2 was 84.7 nM; on Human recombinant MMP-13, 12.4 nM.
For `O=C(NO)C1(S(=O)(=O)c2ccc(OCCCc3cccc(-c4ccc(F)c(F)c4)c3)cc2)CCOCC1` [Example 170], in that order: 1610 nM and 3.3 nM.
For `O=C(NO)C1(S(=O)(=O)c2ccc(OCCc3cccc(-c4cc(F)cc(F)c4)c3)cc2)CCOCC1` [Example 110], in that order: 1200 nM and 7.6 nM.
For `O=C(NO)C1(S(=O)(=O)c2ccc(OCCc3cccc(-c4ccccc4Cl)c3)cc2)CCOCC1` [Example 114], in that order: 1010 nM and 5.2 nM.
For the compound `NC(=O)c1cccc(-c2noc(CCCOc3ccc(S(=O)(=O)C4(C(=O)NO)CCN(C5CC5)CC4)cc3)n2)c1` [Example 129], the IC50 at Human recombinant MMP-2 was 41.4 nM; on Human recombinant MMP-13, 1.9 nM.
The like results for `O=C(NO)C1(S(=O)(=O)c2ccc(OCCCc3cccc(-c4cc(Cl)cc(Cl)c4)c3)cc2)CCOCC1` [Example 172] were, in that order, 5160 nM and 377 nM.
With `O=C(NO)C1(S(=O)(=O)c2ccc(OCCc3cccc(-c4cc(Cl)cc(Cl)c4)c3)cc2)CCOCC1` [Example 126], the IC50 is 3260 nM at Human recombinant MMP-2 and 349 nM on Human recombinant MMP-13.
The like results for `Cc1cc(-c2cccc(CCCOc3ccc(S(=O)(=O)C4(C(=O)NO)CCOCC4)cc3)c2)ccc1Cl` [Example 166] were, in that order, 3080 nM and 136 nM.
The like results for `Cc1cc(-c2cccc(CCCOc3ccc(S(=O)(=O)C4(C(=O)NO)CCOCC4)cc3)c2)ccc1F` [Example 168] were, in that order, 3430 nM and 34.3 nM.
For `O=C(NO)C1(S(=O)(=O)c2ccc(OCCc3cccc(-c4cccc(F)c4)c3)cc2)CCOCC1` [Example 111], in that order: 559 nM and 2 nM.
Consider `O=C(NO)C1(S(=O)(=O)c2ccc(OCCCc3cccc(-c4ccc(Cl)cc4Cl)c3)cc2)CCOCC1` [Example 171], for which the results for the IC50 at Human recombinant MMP-2 and on Human recombinant MMP-13 were 2290 nM and 62.8 nM, respectively.
Turning to `Cc1ccc(-c2cccc(CCOc3ccc(S(=O)(=O)C4(C(=O)NO)CCOCC4)cc3)c2)cc1C` [Example 117], the results for the IC50 on Human recombinant MMP-2 and on Human recombinant MMP-13 were 1740 nM and 16 nM, respectively.
Take `COCCN1CCC(C(=O)NO)(S(=O)(=O)c2ccc(OCCCc3nc(-c4ccc(CC(C)C)cc4C)no3)cc2)CC1` [Example 128]: the IC50 on Human recombinant MMP-2 was found to be 659 nM; at Human recombinant MMP-13 it was 23.7 nM.
For the compound `COCCN1CCC(C(=O)NO)(S(=O)(=O)c2ccc(OCCCc3nc(-c4cccc5ccccc45)no3)cc2)CC1` [Example 199], the figures for the IC50 on Human recombinant MMP-2 and on Human recombinant MMP-13 were 133 nM and 7.4 nM, respectively.
The like results for `Cc1cc(-c2cccc(CCOc3ccc(S(=O)(=O)C4(C(=O)NO)CCOCC4)cc3)c2)ccc1Cl` [Example 118] were, in that order, 1860 nM and 29.8 nM.
In the case of `O=C(NO)C1(S(=O)(=O)c2ccc(OCCCc3nc(C4CCCCC4)no3)cc2)CCN(C2CC2)CC1` [Example 137], the IC50 on Human recombinant MMP-2 worked out at 20.4 nM; at Human recombinant MMP-13, 7 nM.
As for `O=C(NO)C1(S(=O)(=O)c2ccc(OCCc3cccc(-c4ccc(OC(F)(F)F)cc4)c3)cc2)CCOCC1` [Example 112], the concentration for half-maximal inhibition (IC50) amounted to 66.4 nM on Human recombinant MMP-2 and 37.9 nM on Human recombinant MMP-13.
The like results for `CC(C)c1ccc(-c2cccc(CCOc3ccc(S(=O)(=O)C4(C(=O)NO)CCOCC4)cc3)c2)cc1` [Example 109] were, in that order, 5410 nM and 152 nM.
For `O=C(NO)C1(S(=O)(=O)c2ccc(OCCc3cccc(-c4ccc(Cl)c(Cl)c4)c3)cc2)CCOCC1` [Example 121], in that order: 2470 nM and 21.6 nM.
For `Cc1ccccc1-c1cccc(CCOc2ccc(S(=O)(=O)C3(C(=O)NO)CCOCC3)cc2)c1` [Example 116], in that order: 1050 nM and 11.2 nM.
Regarding `COc1ccc(-c2cccc(CCOc3ccc(S(=O)(=O)C4(C(=O)NO)CCOCC4)cc3)c2)cc1C` [Example 119], the IC50 stood at 1190 nM on Human recombinant MMP-2 and 18.3 nM at Human recombinant MMP-13.
For `O=C(NO)C1(S(=O)(=O)c2ccc(OCCc3cccc(-c4ccc(Cl)cc4Cl)c3)cc2)CCOCC1` [Example 124], in that order: 2150 nM and 21.9 nM.
The like results for `CCCCc1ccc(-c2noc(CCCOc3ccc(S(=O)(=O)C4(C(=O)NO)CCOCC4)cc3)n2)c(C)c1` [Example 183] were, in that order, 708 nM and 21 nM.
Take `O=C(NO)C1(S(=O)(=O)c2ccc(OCCCc3cccc(-c4ccc(Cl)c(Cl)c4)c3)cc2)CCOCC1` [Example 169]: the results for the IC50 on Human recombinant MMP-2 and on Human recombinant MMP-13 were 4360 nM and 70.7 nM, respectively.
